Experimental data taken from US12145929B2, “Piperidine derivative and pharmaceutical composition for inhibiting autotaxin comprising same” (NEXTGEN BIOSCIENCE CO., LTD., priority 2021, dated 2024).

These molecules were tested against human Autotaxin protein (Homo sapiens, UniProt Q13822) (assay: Evaluation of inhibitory activity against human Autotaxin protein (18:1 LysoPC substrate, choline assay kit, absorbance 570 nm)). Details: compound at 500 nM, 2 hours at 37° C.
Format: biochemical
Protocol: The solution of each synthesized compound (80 uM, 100% dimethyl sulfoxide) was sequentially diluted 5 times with dimethyl sulfoxide to prepare 6 concentrations. Each concentration of compound was diluted two-fold with 1× test buffer (50 mM Tris-Cl (pH 8.0), 5 mM KCl, 1 mM CaCl2), 1 mM MgCl2, 140 mM NaCl, deionized water, 1 mg/mL BSA), and 1 uL (1.25% dimethyl sulfoxide) of this diluted mixture was dispensed into each well of a 96 well clear round bottom plate. 9 uL of 1× test buffer were added to each well, followed by the addition of 20 uL of 240 nM human Autotaxin protein (buffer: 50 mM Tris-HCl, pH 8.0, with 150 mM sodium chloride and 20% glycerol). 10 uL of sonicated 360 uM 18:1 LysoPC (diluted with 1× test buffer) were added to each well. The reaction was performed for 2 hours in a shaking incubator at 37° C., and a secondary reaction mixture (choline assay kit, KA1662) (65 uL of 1× test buffer: 1 uL of choline oxidase: 1 uL of dye probe) was prepared. 60 uL of the secondary reaction mixture were added to the reaction plate and reacted on a shaker for 30 minutes. Using a SpectraMax iD3 microplate reader, the absorbance was measured at a wavelength of 570 nm. The percentage of inhibition activity (% inhibition) was calculated by the Formula: (1−Absorbancetestgroup/Absorbancecontrol group)×100.

Question: `Cn1nncc1C1CCN(c2nnc(-c3cnc(NC4Cc5cc(F)c(F)cc5C4)nc3)o2)CC1` [Example 33, N-(5,6-difluoro-2,3-dihydro-1H-inden-2-yl)-5-(5-(4-(1-methyl-1H-1,2,3-triazol-5-yl)piperidin-1-yl)-1,3,4-oxadiazol-2-yl)pyrimidin-2-amine] was tested. Which inhibition at 0.5 µM did it give?
Answer: 78.4%

Question: `O=C(CCc1cnc(NC2Cc3ccccc3C2)nc1)N1CCC(c2cnn[nH]2)CC1` [Example 17, 1-(4-(1H-1,2,3-Triazol-5-yl)piperidin-1-yl)-3-(2-((2,3-dihydro-1H-inden-2-yl)amino)pyrimidin-5-yl)propan-1-one] was tested. Which inhibition at 0.5 µM did it give?
Answer: 92%

Question: For `Clc1cc2c(cc1Cl)CC(Nc1ncc(-c3nnc(N4CCC(c5cnn[nH]5)CC4)o3)cn1)C2` [Example 6, 5-(5-(4-(1H-1,2,3-Triazol-5-yl)piperidin-1-yl)-1,3,4-oxadiazol-2-yl)-N-(5,6-dichloro-2,3-dihydro-1H-inden-2-yl)pyrimidin-2-amine], which inhibition at 0.5 µM is on record?
Answer: 91%

Question: How did the inhibition at 0.5 µM turn out when `c1ccc(Cn2nncc2C2CCN(c3cnc(-c4cnc(NC5Cc6ccccc6C5)nc4)o3)CC2)cc1` [Example 31, 5-(5-(4-(1-Benzyl-1H-1,2,3-triazol-5-yl)piperidin-1-yl)oxazol-2-yl)-N-(2,3-dihydro-1H-inden-2-yl)pyrimidin-2-amine] was run?
Answer: 8.1%

Question: `O=C(COCc1nnc(NC2Cc3ccccc3C2)s1)N1CCC(c2cnn[nH]2)CC1` [Example 23, 1-(4-(1H-1,2,3-Triazol-5-yl)piperidin-1-yl)-2-((5-((2,3-dihydro-1H-inden-2-yl)amino)-1,3,4-thiadiazol-2-yl)methoxy)ethanone] was tested. Which inhibition at 0.5 µM did it give?
Answer: 20%

Question: With `Cc1nc(NC2Cc3cc(Br)c(Br)cc3C2)ncc1-c1nnc(N2CCC(c3cnn[nH]3)CC2)o1` [Example 61, 5-(5-(4-(1H-1,2,3-triazol-5-yl)piperidin-1-yl)-1,3,4-oxadiazol-2-yl)-N-(5,6-dibromo-2,3-dihydro-1H-inden-2-yl)-4-methylpyrimidin-2-amine] as the molecule, how does the inhibition at 0.5 µM read?
Answer: 70%

Question: Which inhibition at 0.5 µM does the source give for `Clc1cc(Cl)cc(CNc2ncc(C3CC(N4CCC(c5cnn[nH]5)CC4)=NO3)cn2)c1` (stereo not shown) [Example 44, 5-(3-(4-(1H-1,2,3-triazol-5-yl)piperidin-1-yl)-4,5-dihydroisoxazol-5-yl)-N-(3,5-dichlorobenzyl)pyrimidin-2-amine] here?
Answer: 71.3%

Question: `Brc1ccc2c(c1)CC(Nc1cnc(-c3nnc(N4CCC(c5cnn[nH]5)CC4)o3)cn1)C2` (stereo not shown) [Example 13, 5-(5-(4-(1H-1,2,3-Triazol-5-yl)piperidin-1-yl)-1,3,4-oxadiazol-2-yl)-N-(5-bromo-2,3-dihydro-1H-inden-2-yl)pyrazin-2-amine] was tested. Which inhibition at 0.5 µM did it give?
Answer: 75%

Question: `Clc1cc(Cl)cc(CCNc2ncc(-c3nnc(N4CCC(c5cnn[nH]5)CC4)o3)cn2)c1` [Example 16, 5-(5-(4-(H-1,2,3-Triazol-5-yl)piperidin-1-yl)-1,3,4-oxadiazol-2-yl)-N-(3,5-dichlorophenethyl)pyrimidin-2-amine] was tested. Which “inhibition (%) at 500 nM” value did it give?
Answer: 84%

Question: `c1ccc2c(c1)CC(Nc1ncc(-c3nnc(N4CCC(n5cncn5)CC4)o3)cn1)C2` [Example 9, 5-(5-(4-(1H-1,2,4-Triazol-1-yl)piperidin-1-yl)-1,3,4-oxadiazol-2-yl)-N-(2,3-dihydro-1H-inden-2-yl)pyrimidin-2-amine] was tested. Which inhibition at 0.5 µM did it give?
Answer: 81%

Question: `Brc1ccc2c(c1)CC(Nc1ncc(-c3nnc(N4CCC(c5cnn[nH]5)CC4)o3)cn1)C2` (stereo not shown) [Example 4, 5-(5-(4-(1H-1,2,3-Triazol-5-yl)piperidin-1-yl)-1,3,4-oxadiazol-2-yl)-N-(5-bromo-2,3-dihydro-1H-inden-2-yl)pyrimidin-2-amine] was tested. Which inhibition at 0.5 µM did it give?
Answer: 90%

Question: How did the inhibition at 0.5 µM turn out when `Fc1cc2c(cc1F)CC(Nc1ncc(C3CC(N4CCC(c5nnn[nH]5)CC4)=NO3)cn1)C2` (stereo not shown) [Example 52, 5-(3-(4-(1H-tetrazol-5-yl)piperidin-1-yl)-4,5-dihydroisoxazol-5-yl)-N-(5,6-difluoro-2,3-dihydro-1H-inden-2-yl)pyrimidin-2-amine] was run?
Answer: 4.8%

Question: How did the inhibition at 0.5 µM turn out when `Clc1cc(NC2Cc3ccc(Br)cc3C2)ncc1-c1nnc(N2CCC(c3cnn[nH]3)CC2)o1` (stereo not shown) [Example 14, 5-(5-(4-(1H-1,2,3-Triazol-5-yl)piperidin-1-yl)-1,3,4-oxadiazol-2-yl)-N-(5-bromo-2,3-dihydro-1H-inden-2-yl)-4-chloropyridin-2-amine] was run?
Answer: 5%

Question: How did the inhibition at 0.5 µM turn out when `O=C(O)C1CCN(c2nnc(-c3cnc(NC4Cc5cc(F)c(F)cc5C4)nc3)o2)CC1` [Example 67, 1-(5-(2-((5,6-Difluoro-2,3-dihydro-1H-inden-2-yl)amino)pyrimidin-5-yl)-1,3,4-oxadiazol-2-yl)piperidine-4-carboxylic acid] was run?
Answer: 30.9%

Question: For `Cc1ncn(C2CCN(c3nnc(-c4cnc(NC5Cc6ccccc6C5)nc4)o3)CC2)n1` [Example 10, N-(2,3-dihydro-1H-inden-2-yl)-5-(5-(4-(3-methyl-1H-1,2,4-triazol-1-yl)piperidin-1-yl)-1,3,4-oxadiazol-2-yl)pyrimidin-2-amine], which inhibition at 0.5 µM is on record?
Answer: 75%

Question: With `Clc1ccc(CNc2ncc(-c3nnc(N4CCC(c5cnn[nH]5)CC4)o3)cn2)cc1Cl` [Example 56, 5-(5-(4-(1H-1,2,3-triazol-5-yl)piperidin-1-yl)-1,3,4-oxadiazol-2-yl)-N-(3,4-dichlorobenzyl)pyrimidin-2-amine] as the molecule, how does the inhibition at 0.5 µM read?
Answer: 55.8%

Question: With `Clc1ccc2c(c1)CC(Nc1ncc(-c3nnc(N4CCC(c5cnn[nH]5)CC4)o3)cn1)C2` (stereo not shown) [Example 3, 5-(5-(4-(1H-1,2,3-Triazol-5-yl)piperidin-1-yl)-1,3,4-oxadiazol-2-yl)-N-(5-chloro-2,3-dihydro-1H-inden-2-yl)pyrimidin-2-amine] as the molecule, how does the inhibition at 0.5 µM read?
Answer: 100%

Question: With `c1ccc2c(c1)CC(Nc1ccc(-c3nnc(N4CCC(c5cnn[nH]5)CC4)o3)nn1)C2` [Example 8, 6-(5-(4-(1H-1,2,3-Triazol-5-yl)piperidin-1-yl)-1,3,4-oxadiazol-2-yl)-N-(2,3-dihydro-1H-inden-2-yl)pyridazin-3-amine] as the molecule, how does the inhibition at 0.5 µM read?
Answer: 14%

Question: `Brc1cc(Br)cc(CNc2ncc(-c3nnc(N4CCC(c5cnn[nH]5)CC4)o3)cn2)c1` [Example 59, 5-(5-(4-(1H-1,2,3-triazol-5-yl)piperidin-1-yl)-1,3,4-oxadiazol-2-yl)-N-(3,5-dibromobenzyl)pyrimidin-2-amine] was tested. Which inhibition at 0.5 µM did it give?
Answer: 98.5%

Question: With `Cn1cc(C2CCN(c3nnc(-c4cnc(NC5Cc6cc(F)c(F)cc6C5)nc4)o3)CC2)nn1` [Example 34, N-(5,6-difluoro-2,3-dihydro-1H-inden-2-yl)-5-(5-(4-(1-methyl-1H-1,2,3-triazol-4-yl)piperidin-1-yl)-1,3,4-oxadiazol-2-yl)pyrimidin-2-amine] as the molecule, how does the inhibition at 0.5 µM read?
Answer: 17.3%

Question: For `Fc1cc2c(cc1F)CC(Nc1ncc(-c3nnc(N4CCC(c5nnco5)CC4)o3)cn1)C2` [Example 27, 5-(5-(4-(1,3,4-Oxadiazol-2-yl)piperidin-1-yl)-1,3,4-oxadiazol-2-yl)-N-(5,6-difluoro-2,3-dihydro-1H-inden-2-yl)pyrimidin-2-amine], which inhibition at 0.5 µM is on record?
Answer: 29%

Question: For `c1cc2c(cc1CNc1ncc(C3CC(N4CCC(c5cnn[nH]5)CC4)=NO3)cn1)OCO2` (stereo not shown) [Example 45, 5-(3-(4-(1H-1,2,3-triazol-5-yl)piperidin-1-yl)-4,5-dihydroisoxazol-5-yl)-N-(benzo[d][1,3]dioxol-5-ylmethyl)pyrimidin-2-amine], which inhibition at 0.5 µM is on record?
Answer: 1.6%

Question: How did the inhibition at 0.5 µM turn out when `Fc1cc2c(cc1F)CC(Nc1ncc(-c3nnc(N4CCC(c5cnn[nH]5)CC4)o3)cn1)C2` [Example 5, 5-(5-(4-(1H-1,2,3-Triazol-5-yl)piperidin-1-yl)-1,3,4-oxadiazol-2-yl)-N-(5,6-difluoro-2,3-dihydro-1H-inden-2-yl)pyrimidin-2-amine] was run?
Answer: 100%

Question: With `COC1(c2c[nH]nn2)CCN(c2nnc(-c3cnc(NC4Cc5cc(F)c(F)cc5C4)nc3)o2)CC1` [Example 70, N-(5,6-difluoro-2,3-dihydro-1H-inden-2-yl)-5-(5-(4-methoxy-4-(1H-1,2,3-triazol-4-yl)piperidin-1-yl)-1,3,4-oxadiazol-2-yl)pyrimidin-2-amine] as the molecule, how does the inhibition at 0.5 µM read?
Answer: 97.9%

Question: With `Fc1cc2c(cc1F)CC(Nc1ncc(-c3nnc(N4CCC(F)(c5cnn[nH]5)CC4)o3)cn1)C2` [Example 71, N-(5,6-difluoro-2,3-dihydro-1H-inden-2-yl)-5-(5-(4-fluoro-4-(1H-1,2,3-triazol-5-yl)piperidin-1-yl)-1,3,4-oxadiazol-2-yl)pyrimidin-2-amine] as the molecule, how does the inhibition at 0.5 µM read?
Answer: 98.6%

Question: `Fc1ccc2c(c1)CC(Nc1ncc(-c3cc(N4CCC(c5cnn[nH]5)CC4)no3)cn1)C2` (stereo not shown) [Example 40, 5-(3-(4-(1H-1,2,3-triazol-5-yl)piperidin-1-yl)isoxazol-5-yl)-N-(5-fluoro-2,3-dihydro-1H-inden-2-yl)pyrimidin-2-amine] was tested. Which inhibition at 0.5 µM did it give?
Answer: 68.5%

Question: For `O=C(CCCc1nnc(NC2Cc3ccccc3C2)o1)N1CCC(c2cnc[nH]2)CC1` [Example 22, 1-(4-(1H-Imidazol-5-yl)piperidin-1-yl)-4-(5-((2,3-dihydro-1H-inden-2-yl)amino)-1,3,4-oxadiazol-2-yl)butan-1-one], which inhibition at 0.5 µM is on record?
Answer: 17%

Question: `O=c1[nH]nc(C2CCN(c3nnc(-c4cnc(NC5Cc6cc(F)c(F)cc6C5)nc4)o3)CC2)o1` [Example 66, 5-(1-(5-(2-((5,6-Difluoro-2,3-dihydro-1H-inden-2-yl)amino)pyrimidin-5-yl)-1,3,4-oxadiazol-2-yl)piperidin-4-yl)-1,3,4-oxadiazol-2(3H)-one] was tested. Which inhibition at 0.5 µM did it give?
Answer: 86.8%
